Measured values as given in patent US20040152700A1, “Novel use of 2-phenyl-substituted imidazotriazinones” (priority 2001, published 2004).

Assays:
[1] = tested on: memory power of rats (object recognition); assay: Object recognition test; assay type: in vivo; conditions: oral 1.0, 3.0 or 10 mg/kg in Tylose immediately after first passage, second passage 24 hours later
Procedure: The object recognition test is a memory test. It measures the ability of rats (and mice) to differentiate between known and unknown objects.
The test was carried out as described (Blokland et al. NeuroReport 1998, 9, 4205-4208; Ennaceur, A., Delacour, J., Behav. Brain Res. 1988, 31, 47-59; Ennaceur, A., Meliani, K., Psychopharmacology 1992, 109, 321-330; Prickaerts, et al. Eur. J. Pharmacol. 1997, 337, 125-136).
In a first passage, a rat is confronted with two identical objects in an otherwise empty relatively large observation arena. The rat will investigate, i.e. sniff and touch, both objects thoroughly. In a second passage, after an interval of 24 hours, the rat is again placed in the observation arena. One of the known objects is now replaced by a new, unknown object. If a rat recognizes the known object, it will especially investigate the unknown object. After 24 hours, however, a rat has normally forgotten which object it has already investigated in the first passage, and will therefore inspect both objects to the same extent. […] It will investigate the new, unknown object in more detail than the already known one. This memory power is expressed in a discrimination index. […]

[2] = tested on: memory capability of mice; conditions: avoidance test; cited from earlier work

SMILES | memory power in the second passage compared with the control condition [1] | action on the memory capability [2]
CCCc1nc(C)c2c(=O)[nH]c(-c3cc(S(=O)(=O)N4CCN(C)CC4)ccc3OCC)nn12 [Example 1, 2-[2-ethoxy-5-(4-methyl-piperazine-1-sulphonyl)-phenyl]-5-methyl-7-propyl-3H-imidazo[5,1-f][1,2,4]triazin-4-one] | improved | 
CCCc1nn(C)c2c(=O)[nH]c(-c3cc(S(=O)(=O)N4CCN(C)CC4)ccc3OCC)nc12 [Sildenafil, 5-[2-ethoxy-5-(4-methylpiperazin-1-ylsulphonyl)phenyl]1,6-dihydro-1-methyl-3-propylpyrazolo[4,3-d]pyrimidin-7-one] |  | improving action
